Source: PubChem BioAssay (NCI)
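Five compound concentrations were applied to cells in 96-well plates for 48 hours; endpoints were derived by simple linear interpolation of the resulting dose-response curve. TGI marks complete inhibition of growth.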

Legend:
Assay in all cases: growth of human tumour cells (NCI), 48 h
SF-295 CNS = system: SF-295 CNS
NCI-H23 lung = system: NCI-H23 lung
SW-620 colon = system: SW-620 colon
IGROV1 ovarian = system: IGROV1 ovarian
MALME-3M melanoma = system: MALME-3M melanoma
OVCAR-3 ovarian = system: OVCAR-3 ovarian
M14 melanoma = system: M14 melanoma
PC-3 prostate = system: PC-3 prostate
COLO 205 colon = system: COLO 205 colon
SK-OV-3 ovarian = system: SK-OV-3 ovarian
MOLT-4 leukemia = system: MOLT-4 leukemia
HL-60(TB) leukemia = system: HL-60(TB) leukemia
SK-MEL-5 melanoma = system: SK-MEL-5 melanoma
K-562 leukemia = system: K-562 leukemia
EKVX NSCLC = system: EKVX NSCLC
UACC-62 melanoma = system: UACC-62 melanoma
A498 renal = system: A498 renal
786-0 renal = system: 786-0 renal
SNB-75 CNS = system: SNB-75 CNS
HCT-15 colon = system: HCT-15 colon
ACHN renal = system: ACHN renal
SN12C renal = system: SN12C renal
RPMI-8226 leukemia = system: RPMI-8226 leukemia
T-47D breast = system: T-47D breast
BT-549 breast = system: BT-549 breast
HOP-92 NSCLC = system: HOP-92 NSCLC
SF-539 CNS = system: SF-539 CNS
MDA-MB-231 breast = system: MDA-MB-231 breast
SF-268 CNS = system: SF-268 CNS
OVCAR-5 ovarian = system: OVCAR-5 ovarian
HCC-2998 colon = system: HCC-2998 colon
HT29 colon = system: HT29 colon
U251 CNS = system: U251 CNS
A549 NSCLC = system: A549 NSCLC
DU-145 prostate = system: DU-145 prostate
HCT-116 colon = system: HCT-116 colon
UO-31 renal = system: UO-31 renal
HS 578T breast = system: HS 578T breast
OVCAR-8 ovarian = system: OVCAR-8 ovarian
NCI-H522 lung = system: NCI-H522 lung
NCI/ADR-RES ovarian = system: NCI/ADR-RES ovarian
LOX IMVI melanoma = system: LOX IMVI melanoma
SK-MEL-28 melanoma = system: SK-MEL-28 melanoma
CCRF-CEM leukemia = system: CCRF-CEM leukemia
MDA-MB-435 = system: MDA-MB-435
MCF7 breast = system: MCF7 breast
SNB-19 CNS = system: SNB-19 CNS
HOP-62 NSCLC = system: HOP-62 NSCLC
UACC-257 melanoma = system: UACC-257 melanoma
TK-10 renal = system: TK-10 renal
NCI-H460 lung = system: NCI-H460 lung
SK-MEL-2 melanoma = system: SK-MEL-2 melanoma
MDA-N = system: MDA-N
RXF 393 renal = system: RXF 393 renal
KM12 colon = system: KM12 colon
SR leukemia = system: SR leukemia
CAKI-1 renal = system: CAKI-1 renal
NCI-H226 lung = system: NCI-H226 lung
OVCAR-4 ovarian = system: OVCAR-4 ovarian

For `COc1ccc2[nH]c(Cl)c(/C=C3/C(=O)N(c4ccccc4)c4ccccc43)c2c1`, the TGI (SF-295 CNS) was 7.33 µM, the TGI (NCI-H23 lung) was 19.5 µM and the TGI (SW-620 colon) was 24.6 µM. It also gave a TGI (IGROV1 ovarian) of over 100 µM, a TGI (MALME-3M melanoma) of 36.2 µM and a TGI (OVCAR-3 ovarian) of 7.71 µM. For the same compound, the TGI (M14 melanoma) was 12.9 µM, the TGI (PC-3 prostate) was over 100 µM and the TGI (COLO 205 colon) was 5.89 µM. For the same compound, the TGI (SK-OV-3 ovarian) was 10.8 µM, the TGI (MOLT-4 leukemia) was over 100 µM and the TGI (HL-60(TB) leukemia) was 9.02 µM. For the same compound, the TGI (SK-MEL-5 melanoma) was 5.97 µM, the TGI (K-562 leukemia) was 26.4 µM and the TGI (EKVX NSCLC) was 69.5 µM. The TGI (UACC-62 melanoma) was 43.4 µM, the TGI (A498 renal) was over 100 µM and the TGI (786-0 renal) was 20.9 µM. The TGI (SNB-75 CNS) was 49.1 µM, the TGI (HCT-15 colon) was 13 µM and the TGI (ACHN renal) was over 100 µM. It also gave a TGI (SN12C renal) of 18.9 µM, a TGI (RPMI-8226 leukemia) of 20.4 µM and a TGI (T-47D breast) of 21.4 µM. It also gave a TGI (BT-549 breast) of 11.3 µM, a TGI (HOP-92 NSCLC) of over 100 µM and a TGI (SF-539 CNS) of 6.63 µM. It also gave a TGI (MDA-MB-231 breast) of 65.3 µM, a TGI (SF-268 CNS) of 23.3 µM and a TGI (OVCAR-5 ovarian) of 94.8 µM. It also gave a TGI (HCC-2998 colon) of 17.6 µM, a TGI (HT29 colon) of 45.8 µM and a TGI (U251 CNS) of 30.7 µM. The TGI (A549 NSCLC) was over 100 µM, the TGI (DU-145 prostate) was 76.4 µM and the TGI (HCT-116 colon) was 18.6 µM. The TGI (UO-31 renal) was 93.1 µM, the TGI (HS 578T breast) was 39.6 µM and the TGI (OVCAR-8 ovarian) was 28.8 µM. The TGI (NCI-H522 lung) was 17.9 µM, the TGI (NCI/ADR-RES ovarian) was 6.45 µM and the TGI (LOX IMVI melanoma) was 14.3 µM. It also gave a TGI (SK-MEL-28 melanoma) of 52 µM, a TGI (CCRF-CEM leukemia) of 63.4 µM and a TGI (MDA-MB-435) of 4.33 µM. It also gave a TGI (MCF7 breast) of over 100 µM, a TGI (SNB-19 CNS) of 88.5 µM and a TGI (HOP-62 NSCLC) of 23.4 µM. It also gave a TGI (UACC-257 melanoma) of 24.3 µM, a TGI (TK-10 renal) of 36.5 µM and a TGI (NCI-H460 lung) of 16.3 µM. The TGI (SK-MEL-2 melanoma) was 10.9 µM, the TGI (MDA-N) was 3.53 µM and the TGI (RXF 393 renal) was 47.3 µM. The TGI (KM12 colon) was over 100 µM, the TGI (SR leukemia) was 11.1 µM and the TGI (CAKI-1 renal) was over 100 µM.

`C=C[C@]1(C)C[C@@H](OC(=O)CO)[C@@]2(C)[C@H](C)CC[C@]3(CCC(=O)[C@H]32)[C@@H](C)[C@@H]1O` was tested, and the TGI (SF-295 CNS) was over 100 µM, the TGI (NCI-H23 lung) was over 100 µM and the TGI (SW-620 colon) was over 100 µM. For the same compound, the TGI (IGROV1 ovarian) was over 100 µM, the TGI (NCI-H226 lung) was over 100 µM and the TGI (MALME-3M melanoma) was over 100 µM. For the same compound, the TGI (OVCAR-3 ovarian) was over 100 µM, the TGI (M14 melanoma) was over 100 µM and the TGI (PC-3 prostate) was over 100 µM. For the same compound, the TGI (COLO 205 colon) was over 100 µM, the TGI (SK-OV-3 ovarian) was over 100 µM and the TGI (MOLT-4 leukemia) was over 75.5 µM. For the same compound, the TGI (HL-60(TB) leukemia) was over 100 µM, the TGI (SK-MEL-5 melanoma) was over 100 µM and the TGI (K-562 leukemia) was over 75.1 µM. The TGI (EKVX NSCLC) was over 100 µM, the TGI (UACC-62 melanoma) was over 50.3 µM and the TGI (A498 renal) was over 78.2 µM. For the same compound, the TGI (786-0 renal) was over 100 µM, the TGI (SNB-75 CNS) was over 100 µM and the TGI (HCT-15 colon) was over 100 µM. It also gave a TGI (ACHN renal) of over 100 µM, a TGI (SN12C renal) of over 100 µM and a TGI (RPMI-8226 leukemia) of over 100 µM. It also gave a TGI (T-47D breast) of over 100 µM, a TGI (BT-549 breast) of over 100 µM and a TGI (OVCAR-4 ovarian) of over 100 µM. It also gave a TGI (HOP-92 NSCLC) of over 100 µM, a TGI (SF-539 CNS) of over 100 µM and a TGI (MDA-MB-231 breast) of over 100 µM. For the same compound, the TGI (SF-268 CNS) was over 100 µM, the TGI (OVCAR-5 ovarian) was over 100 µM and the TGI (HCC-2998 colon) was over 100 µM. It also gave a TGI (HT29 colon) of over 100 µM, a TGI (U251 CNS) of over 100 µM and a TGI (A549 NSCLC) of over 100 µM. The TGI (DU-145 prostate) was over 100 µM, the TGI (HCT-116 colon) was over 100 µM and the TGI (UO-31 renal) was over 100 µM. The TGI (HS 578T breast) was 97 µM, the TGI (OVCAR-8 ovarian) was over 100 µM and the TGI (NCI-H522 lung) was over 100 µM. The TGI (NCI/ADR-RES ovarian) was over 100 µM, the TGI (LOX IMVI melanoma) was over 31.6 µM and the TGI (SK-MEL-28 melanoma) was over 100 µM. The TGI (MDA-MB-435) was over 100 µM, the TGI (MCF7 breast) was over 100 µM and the TGI (SNB-19 CNS) was over 100 µM. The TGI (HOP-62 NSCLC) was over 100 µM, the TGI (UACC-257 melanoma) was over 100 µM and the TGI (TK-10 renal) was over 100 µM. It also gave a TGI (NCI-H460 lung) of over 100 µM, a TGI (SK-MEL-2 melanoma) of over 100 µM and a TGI (MDA-N) of over 100 µM. For the same compound, the TGI (RXF 393 renal) was over 100 µM, the TGI (KM12 colon) was over 100 µM and the TGI (SR leukemia) was over 74.2 µM. It also gave a TGI (CAKI-1 renal) of over 100 µM.

`CCOC(=O)NC(C(F)(F)F)(C(F)(F)F)P(=O)(OCC(C)C)OCC(C)C` showed a TGI (SF-295 CNS) of over 100 µM, a TGI (SW-620 colon) of 17.2 µM and a TGI (IGROV1 ovarian) of 51.5 µM. The TGI (NCI-H226 lung) was 32.6 µM, the TGI (MALME-3M melanoma) was 60.7 µM and the TGI (OVCAR-3 ovarian) was 64 µM. It also gave a TGI (M14 melanoma) of 26.1 µM, a TGI (PC-3 prostate) of over 100 µM and a TGI (COLO 205 colon) of 31 µM. For the same compound, the TGI (SK-OV-3 ovarian) was 66.9 µM, the TGI (HL-60(TB) leukemia) was 22.4 µM and the TGI (SK-MEL-5 melanoma) was 24.9 µM. For the same compound, the TGI (K-562 leukemia) was over 100 µM, the TGI (EKVX NSCLC) was 74.6 µM and the TGI (UACC-62 melanoma) was 29.4 µM. For the same compound, the TGI (A498 renal) was over 100 µM, the TGI (SNB-75 CNS) was 97.1 µM and the TGI (HCT-15 colon) was 17.1 µM. For the same compound, the TGI (ACHN renal) was 52.8 µM, the TGI (SN12C renal) was 49 µM and the TGI (RPMI-8226 leukemia) was over 100 µM. For the same compound, the TGI (T-47D breast) was over 100 µM, the TGI (BT-549 breast) was 29 µM and the TGI (HOP-92 NSCLC) was 36.7 µM. It also gave a TGI (SF-539 CNS) of 48.8 µM, a TGI (MDA-MB-231 breast) of 39 µM and a TGI (SF-268 CNS) of 57.3 µM. For the same compound, the TGI (OVCAR-5 ovarian) was 58.7 µM, the TGI (HCC-2998 colon) was over 100 µM and the TGI (HT29 colon) was 33.8 µM. The TGI (U251 CNS) was over 100 µM, the TGI (A549 NSCLC) was over 100 µM and the TGI (DU-145 prostate) was over 100 µM. For the same compound, the TGI (HCT-116 colon) was 16.6 µM, the TGI (UO-31 renal) was 30.3 µM and the TGI (HS 578T breast) was 56.5 µM. It also gave a TGI (OVCAR-8 ovarian) of 31.4 µM, a TGI (NCI-H522 lung) of 11.6 µM and a TGI (NCI/ADR-RES ovarian) of 47 µM. For the same compound, the TGI (LOX IMVI melanoma) was 20.6 µM, the TGI (SK-MEL-28 melanoma) was 54.2 µM and the TGI (CCRF-CEM leukemia) was over 100 µM. For the same compound, the TGI (MDA-MB-435) was over 100 µM, the TGI (MCF7 breast) was 21.1 µM and the TGI (SNB-19 CNS) was over 100 µM. The TGI (HOP-62 NSCLC) was over 100 µM, the TGI (TK-10 renal) was 65.8 µM and the TGI (NCI-H460 lung) was over 100 µM. It also gave a TGI (SK-MEL-2 melanoma) of 43 µM, a TGI (MDA-N) of 27.1 µM and a TGI (RXF 393 renal) of 24.5 µM. The TGI (KM12 colon) was over 100 µM, the TGI (SR leukemia) was over 100 µM and the TGI (CAKI-1 renal) was over 100 µM.
